Experimental data published in patent US20220313656A1, “NEW CLASS OF ANTIBIOTICS HAVING LOW MIC-VALUES TOWARDS DIFFERENT STRAINS OF BACTERIA” (priority 2019, published 2022).
Where two headings read alike, the source gives them in different places.

How the values were obtained:
[1] = tested on: E. coli APEC O2; test: MIC, serial dilution method (CLSI); assay type: cell-based, Escherichia coli
Procedure: (§1) These inoculums were each in diluted 1:100 in Müller Hinton (MH) broth (Sigma, Copenhagen, Denmark). From the diluted inoculums 100 μl was transferred to each well in a 96-well plate and mixed with the compound to be MIC determined. The plate was incubated for 24 hours at 37° C. (without shaking). The MIC value was determined as the lowest concentration in which no bacterial growth could be visually detected. All MIC determinations were done in duplicates. […] Since all derivatives are new, no control strains (with reference MIC values) were available.

[2] = tested on: Bacillus cereus; test: MIC, serial dilution method (CLSI); assay type: cell-based
Procedure: as §1

[3] = tested on: Streptococcus equi; test: MIC, serial dilution method (CLSI); assay type: cell-based
Procedure: as §1

[4] = tested on: Listeria monocytogenes; test: MIC, serial dilution method (CLSI); assay type: cell-based
Procedure: as §1

[5] = tested on: Salmonella enteritidis; test: MIC, serial dilution method (CLSI); assay type: cell-based
Procedure: as §1

[6] = tested on: E. faecium; test: MIC, serial dilution method (CLSI); assay type: cell-based, Enterococcus faecium
Procedure: as §1

[7] = tested on: S. aureus USA300; test: MIC, serial dilution method (CLSI); assay type: cell-based, Staphylococcus aureus
Procedure: as §1

[8] = tested on: S. aureus CC398; test: MIC, serial dilution method (CLSI); assay type: cell-based, Staphylococcus aureus
Procedure: as §1

[9] = tested on: Staphylococus pseudintermedius; test: MIC, serial dilution method (CLSI); assay type: cell-based, Staphylococcus pseudintermedius
Procedure: as §1

[10] = tested on: E. faecalis; test: MIC, serial dilution method (CLSI); assay type: cell-based, Enterococcus faecalis
Procedure: as §1

[11] = tested on: Staphylococcus aureus MRSA 43484; test: Murine superficial MRSA skin infection model, topical treatment; assay type: in vivo; settings: 2%, topical twice daily for 3 days, day 4, Balb/C mice
Procedure: This experiment is conducted to assess the effect of topical treatment of the compounds against MRSA. Compound S43 was evaluated for efficacy against Staphylococcus aureus MRSA 43484 in an murine skin infection model.
Treatment was performed twice daily for 3 days and sampling of skin biopsies was performed the day after last treatment. Treatment with Fucidic acid was included as a positive control and treatment with vehicle was included as a negative control.
48 Balb/C female mice—18-22 g—Taconic, Denmark, Staphylococcus aureus MRSA43484, Test compound A at 1 and 2% formulations, Test compound B at 2% formulation, Fucidin, 0.9% saline (sterile, SSI), 0.9% saline/Triton-x (sterile, SSI), Sterile water (SSI), 5% Horse Blood Agar plates (SSI), MRSA Brilliance agar plates, Nurofen® Junior (20 mg/ml, Novartis), Zoletil mix/Torbugesic (SSI/QC-BIO), Dermal curette—Miltex 335710.
Approximately 1 hour before inoculation, mice were treated orally with 45 μl nurofen (20 mg ibuprofen/ml corresponding to approximately […]) as pain relief. The mice were anaesthetized with 0.15 ml s.c. of Zoletil mix. The fur was removed from a 2×3-cm area on the back of each mouse by use of an electric shaver. Next, a razor was used to remove all the hair and hereafter the outer most layer of the skin was scraped off with a dermal curette to obtain a 1 cm^2 superficial skin lesion. 10 μl inoculum containing approximately 10^7 CFU was spread on the lesion. After the applied inoculum had dried, the mouse was placed in the cage and kept in a warming cabinet until fully awake.
Topical treatment of was initiated the day after inoculation, Day 1. Mice were treated twice daily (9 a.m and 3 p.m.) for three days. A volume of 50 μl was spread on the inoculated skin area.
Colony counts in the skin lesions were determined on day 1 (start of treatment) and day 4 (the day after completed treatment). The mice were sacrificed day 1 and 4 according to Table 1. The affected skin area was removed by a pair of scissors and tweezers, and collected in a tube for Dispomixer with 1 ml saline. The skin sample was homogenized in a Dispomixer. Each sample was serial diluted in saline/Triton-x and 20-μl spots were applied on MRSA Brillince agar plates. All agar plates were incubated 20-48 hrs at 35° C.

[12] = Escherichia coli, APECO2, 24 h, read-out: MIC
[13] = Salmonella enterica, ENTERITIDIS, 24 h, read-out: MIC
[14] = Enterococcus faecium, 24 h, read-out: MIC
[15] = Staphylococcus aureus, USA300, 24 h, read-out: MIC
[16] = Staphylococcus aureus, MRSA, 24 h, read-out: MIC
[17] = Staphylococcus pseudintermedius, 24 h, read-out: MIC
[18] = Enterococcus faecalis, 24 h, read-out: MIC
[19] = E. coli APEC O2, MH broth, 24 hours at 37° C., set to 256 if growth at […]
[20] = MH broth, 24 hours at 37° C., set to 256 if growth at […]
[21] = Salmonella enteritidis, MH broth, 24 hours at 37° C., set to 256 if growth at […]
[22] = E. faecium, MH broth, 24 hours at 37° C., set to 256 if growth at […]
[23] = S. aureus USA300, MH broth, 24 hours at 37° C., set to 256 if growth at […]
[24] = S. aureus CC398 (MRSA strain), MH broth, 24 hours at 37° C., set to 256 if growth at […]
[25] = Staphylococus pseudintermedius, MH broth, 24 hours at 37° C., set to 256 if growth at […]
[26] = E. faecalis, MH broth, 24 hours at 37° C., set to 256 if growth at […]

MIC [1, 12] | MIC ([2]; 24 h, read-out: MIC) | MIC ([3]; 24 h, read-out: MIC) | MIC ([4]; 24 h, read-out: MIC) | MIC [5, 13] | MIC [6, 14] | MIC [7, 15] | MIC [8, 16] | MIC [9, 17] | MIC [10, 18] | SMILES | also measured
128 µg/mL | 8 µg/mL | 8 µg/mL | 8 µg/mL | 128 µg/mL | 16 µg/mL | 8 µg/mL | 8 µg/mL | 8 µg/mL | 32 µg/mL | CSc1ccc2c(c1)N(CCC1CCCC[N+]1(C)C(C)C)c1ccccc1S2.[Br-] (stereo not drawn) [Compound S26, 1-isopropyl-1-methyl-2-(2-(2-(methylthio)-10H-phenothiazin-10-yl)ethyl)piperidin-1-ium bromide] | –
64 µg/mL | 2 µg/mL | 2 µg/mL | 2 µg/mL | 64 µg/mL | 2 µg/mL | 4 µg/mL | 2 µg/mL | 2 µg/mL | 4 µg/mL | CCCCCCCCCCCC[N+]1(C)CCCCC1CCN1c2ccccc2Sc2ccc(SC)cc21.[Br-] (stereo not drawn) [Compound S29, 1-dodecyl-1-methyl-2-(2-(2-(methylthio)-10H-phenothiazin-10-yl)ethyl)piperidin-1-ium bromide] | –
64 µg/mL | 64 µg/mL | 256 µg/mL | 32 µg/mL | 128 µg/mL | 32 µg/mL | 32 µg/mL | 32 µg/mL | 32 µg/mL | 32 µg/mL | CN(C)CC/C=C1/c2ccccc2Sc2ccc(Cl)cc21.Cl [Compound S34, (Z)-3-(2-chloro-9H-thioxanthen-9-ylidene)-N,N-dimethylpropan-1-amine hydrochloride, reference compound] | –
256 µg/mL | 128 µg/mL | 256 µg/mL | 256 µg/mL | 256 µg/mL | 256 µg/mL | 256 µg/mL | 256 µg/mL | 256 µg/mL | 256 µg/mL | C[N+](C)(C)CC/C=C1/c2ccccc2Sc2ccc(Cl)cc21.[I-] [Compound S35, (Z)-3-(2-chloro-9H-thioxanthen-9-ylidene)-N,N,N-trimethylpropan-1-aminium iodide] | –
256 µg/mL | 64 µg/mL | 256 µg/mL | 128 µg/mL | 256 µg/mL | 128 µg/mL | 32 µg/mL | 32 µg/mL | 32 µg/mL | 128 µg/mL | CC[N+](C)(C)CC/C=C1/c2ccccc2Sc2ccc(Cl)cc21.[Br-] [Compound S36, (Z)-3-(2-chloro-9H-thioxanthen-9-ylidene)-N-ethyl-N,N-dimethylpropan-1-aminium bromide] | –
64 µg/mL | 8 µg/mL | 4 µg/mL | 8 µg/mL | 64 µg/mL | 16 µg/mL | 4 µg/mL | 4 µg/mL | 4 µg/mL | 16 µg/mL | CC(C)CC[N+](C)(C)CC/C=C1/c2ccccc2Sc2ccc(Cl)cc21.[Br-] [Compound S37, (Z)—N-(3-(2-chloro-9H-thioxanthen-9-ylidene)propyl)-N,N,3-trimethylbutan-1-aminium bromide] | –
64 µg/mL | 8 µg/mL | 2 µg/mL | 8 µg/mL | 64 µg/mL | 16 µg/mL | 4 µg/mL | 4 µg/mL | 2 µg/mL | 16 µg/mL | CCCCC[N+](C)(C)CC/C=C1/c2ccccc2Sc2ccc(Cl)cc21.[Br-] [Compound S38, (Z)—N-(3-(2-chloro-9H-thioxanthen-9-ylidene)propyl)-N,N-dimethylpentan-1-aminium bromide] | –
256 µg/mL | 64 µg/mL | 8 µg/mL | 32 µg/mL | 128 µg/mL | 64 µg/mL | 16 µg/mL | 16 µg/mL | 8 µg/mL | 64 µg/mL | C=CC[N+](C)(C)CCCN1c2ccccc2Sc2ccc(Cl)cc21.[Br-] [Compound S40, N-(3-(2-chloro-10H-phenothiazin-10-yl)propyl)-N,N-dimethylprop-2-en-1-aminium bromide] | –
256 µg/mL | 256 µg/mL | 32 µg/mL | 256 µg/mL | 256 µg/mL | 128 µg/mL | 64 µg/mL | 64 µg/mL | 64 µg/mL | 256 µg/mL | C=CC[N+](C)(C)C(C)CN1c2ccccc2Sc2ccccc21.[Br-] (stereo not drawn) [Compound S41, N-(1-(10H-phenothiazin-10-yl)propan-2-yl)-N,N-dimethylprop-2-en-1-aminium bromide] | –
256 µg/mL | 64 µg/mL | 4 µg/mL | 32 µg/mL | 128 µg/mL | 16 µg/mL | 4 µg/mL | 4 µg/mL | 4 µg/mL | 16 µg/mL | C=CC[N+]1(C)CCCCC1CCN1c2ccccc2Sc2ccc(SC)cc21.[Br-] (stereo not drawn) [Compound S42, 1-allyl-1-methyl-2-(2-(2-(methylthio)-10H-phenothiazin-10-yl)ethyl)piperidin-1-ium bromide] | –
– | – | – | – | – | – | – | – | – | – | COC(=O)CCCCC[N+](C)(C)C(C)CN1c2ccccc2Sc2ccccc21 (stereo not drawn) [Promethazine 6-Methoxy-6-oxo-1-hexyl] | MIC [1, 19]: 256 µg/mL; MIC [2, 20]: 128 µg/mL; MIC [3, 20]: 32 µg/mL; MIC [4, 20]: 128 µg/mL; MIC [5, 21]: 256 µg/mL; MIC [6, 22]: 128 µg/mL; MIC [7, 23]: 64 µg/mL; MIC [8, 24]: 64 µg/mL; MIC [9, 25]: 32 µg/mL; MIC [10, 26]: 256 µg/mL
– | – | – | – | – | – | – | – | – | – | CC(CN1c2ccccc2Sc2ccccc21)[N+](C)(C)Cc1ccccc1 (stereo not drawn) [Promethazine Benzyl] | MIC [1, 19]: 128 µg/mL; MIC [2, 20]: 32 µg/mL; MIC [3, 20]: 16 µg/mL; MIC [4, 20]: 32 µg/mL; MIC [5, 21]: 128 µg/mL; MIC [6, 22]: 64 µg/mL; MIC [7, 23]: 16 µg/mL; MIC [8, 24]: 16 µg/mL; MIC [9, 25]: 16 µg/mL; MIC [10, 26]: 128 µg/mL
– | – | – | – | – | – | – | – | – | – | CCOC(=O)CC[N+]1(C)CCCCC1CCN1c2ccccc2Sc2ccc(SC)cc21 (stereo not drawn) [Thioridazine 3-Ethoxy-3-oxo-1-propyl] | MIC [1, 19]: 256 µg/mL; MIC [2, 20]: 4 µg/mL; MIC [3, 20]: 8 µg/mL; MIC [4, 20]: 4 µg/mL; MIC [5, 21]: 128 µg/mL; MIC [6, 22]: 32 µg/mL; MIC [7, 23]: 32 µg/mL; MIC [8, 24]: 32 µg/mL; MIC [9, 25]: 16 µg/mL; MIC [10, 26]: 32 µg/mL
– | – | – | – | – | – | – | – | – | – | CSc1ccc2c(c1)N(CCC1CCCC[N+]1(C)Cc1ccccc1)c1ccccc1S2 (stereo not drawn) [Thioridazine Benzyl] | MIC [1, 19]: 128 µg/mL; MIC [2, 20]: 2 µg/mL; MIC [3, 20]: 2 µg/mL; MIC [4, 20]: 4 µg/mL; MIC [5, 21]: 64 µg/mL; MIC [6, 22]: 8 µg/mL; MIC [7, 23]: 2 µg/mL; MIC [8, 24]: 2 µg/mL; MIC [9, 25]: 2 µg/mL; MIC [10, 26]: 8 µg/mL
– | – | – | – | – | – | – | – | – | – | CC(=O)O[C@H]1C[C@@]2(C)[C@@H](C[C@@H](O)[C@H]3[C@@]4(C)CC[C@@H](O)[C@@H](C)[C@@H]4CC[C@@]32C)/C1=C(\CCC=C(C)C)C(=O)O [fucidic acid, reference compound] | reduction of the CFU levels compared to the vehicle control [11]: 1.5 logo
